# According to US20020195406A1, “Compositions and methods for disinfecting small diameter water lines” (priority 2001, published 2002):
# Where “and” joins values, the source holds several entries; their conditions need not be identical. Equal values may be shown once.
# Legend:
# biofilms = conditions: household bleach 5.25%, glutaraldehyde 3%, isopropanol 15.3%, cited from earlier work; for effluents from biofilms after contact: 15-hours contact; for recolonization returned to pretreatment levels by day: after 15-hours contact
# [1] = system: dental unit biofilm bacteria; conditions: 13% (130,000 ppm), used periodically in one facility; cited from earlier work
# [2] = system: microorganisms in small diameter water lines; conditions: after 24 hours of treatment; approximately 10%; cited from earlier work
# biofilm bacteria = conditions: free chlorine; cited from earlier work
# [3] = half reaction as printed; cited from earlier work
# [4] = system: bacteria in biofilms of dental water unit lines; assay: Microbial counts for 6 dental water units after one 30-min treatment with 1000 ppm ClO2 (Example 1); assay type: cell-based; conditions: for Microbial count of unit effluent water: individual units 31-40; for Microbial count of unit effluent water, mean: mean of 6 units
# Method: Treatment: This example involved six dental water units, in a preliminary range finding study. The study was run during a particularly warm period of weather, where concomitant warmer municipal water temperatures would be expected to exacerbate biofilm contamination problems. The units were all of the same model, and were fitted with detachable water reservoirs. 100 ml of tap water was placed in each reservoir, and water was then run through the ultrasonic outlets for 30 seconds. Thereafter 30 ml of water was collected aseptically from each outlet. The reservoirs were then disconnected, and water run out of all outlets until the units ran dry. 100 ml of a 1000 ppm treatment solution, prepared as follows, was then placed in each reservoir:
# 10 ml of a 5.0% sodium chlorite solution was pipetted into a 100-ml volumetric flask already containing 75 ml of deionized water. To that was added 2.0 ml of 13% sodium hypochlorite solution (bleach). Immediately thereafter, 10.0 ml of a 1.9% citric acid solution was added, brought to volume with deionized water, sealed and the flask was agitated to mix the contents.
# All outlets were then run until the solution came through each one. The solutions were then left in each unit for 30 minutes, after which the reservoirs were disconnected and the treatment solution was run out until all three outlets from each unit were dry. The reservoirs were then rinsed and filled with water (about 1 liter), and the water then run out of all three outlets until the reservoirs were empty.
# […] Samples were also collected from the tap from which water to operate the units was taken.
# Microbial Culture: The water samples were vortex mixed, and then diluted in phosphate-buffered saline in two 10-fold dilutions. The samples were then plated onto yeast extract agar by means of a spiral plater. The plates were incubated at 22° C. for four days, after which they were counted.
# [5] = system: bacteria in biofilms of dental water unit lines; assay: Microbial counts for a dental water unit after three staggered 30-min treatments with 500 ppm ClO2 (Example 2); assay type: cell-based
# Source text: The level, however, is probably typical of the tap water in the UK, where this study was run. In this study three staggered 30-minute exposures to 500 ppm ClO2 solution were made, and counts then made from 1 to 4 days after each treatment. The techniques of treatment and sampling were similar to those described in Example 1. The ClO2 solution was similarly prepared, using half the level of sodium chlorite and hypochlorite initially, after acidification with citric acid.
# [6] = system: bacteria in biofilms of dental water unit lines; assay: Microbial counts for a dental water unit after three consecutive-day 30-min treatments with 500 ppm ClO2 (Example 3); assay type: cell-based
# Method: The level, however, is probably typical of the tap water in the UK, where this study was run. In this study the unit was treated as in Example 2, but on three consecutive days. Samples were taken of both the incoming supply water and from the unit before treatment on each day, with a 500 ppm ClO2 solution for 30-minutes, and also 1, 2 and 5 days after the last treatment. This schedule is represented in the chart below, along with the data derived from each water sample.
# [7] = system: bacteria in biofilms of dental water unit lines; assay: Microbial counts from a dental water unit supplied with sterile water after a single 1000 ppm ClO2 30-minute exposure (Example 4); assay type: cell-based
# Method: Treatment: This study was run on a dental water unit that had been supplied with sterile water for a week, after its normal operation with tap water. The intent of the study was to determine if a unit, once disinfected, and not then re-exposed to tap water with excess levels of micro-organisms, would show the rebound in organism levels that has been observed in the previous examples. The unit was exposed to a single 1000 ppm solution of ClO2, prepared and applied for 30 minutes, as fully described in Example 1. Sampling and counting techniques were also the same.
# [8] = system: bacteria in biofilms of dental water unit lines; assay: Microbial counts for a dental water unit after three staggered 30-min treatments with 500 ppm ClO2 (Example 2); assay type: cell-based; remark: listed apart in the source
molecule,measurement,setting,value
O=CCCCC=O [glutaraldehyde],effluents from biofilms after contact,biofilms,free of recoverable bacteria
same,recolonization returned to pretreatment levels by day,biofilms,3 days
OCl [hypochlorite],effect on bacterial counts,[1],"dramatic reductions in bacterial counts, but these rise again rather quickly"
CC(C)O [isopropanol],effluents from biofilms after contact,biofilms,free of recoverable bacteria
same,recolonization returned to pretreatment levels by day,biofilms,15 days
povidone-iodine,numbers of bacteria after treatment,[2],greatly reduced
same,regrowth of bacteria after treatment,[2],quickly begin to rise after eight days
OCl [hypochlorous acid],resistance of biofilm bacteria relative to unattached cells,biofilm bacteria,150-3000 times
same,oxidation potential,[3],1.49 V
chlorine dioxide [ClO2],reduction in the effluent's cfu/ml,"[4]; after day two vs T=0, 1000 ppm, 30 min",27 fold
same,difference from T=0,"[4]; after day two, 1000 ppm, 30 min",1.43 logs
same,DWU effluent count relative to tap water,"[4]; day 3 after treatment, 1000 ppm, 30 min",approximated that of the tap water
same,Microbial count of unit effluent water,[4]; 1 day after 30-min treatment with 1000 ppm ClO2,1.90 log cfu/ml and 2.08 log cfu/ml and 2.45 log cfu/ml and 3.85 log cfu/ml and 2.30 log cfu/ml and 1.30 log cfu/ml
same,Microbial count of unit effluent water,[4]; 2 days after 30-min treatment with 1000 ppm ClO2,2.78 log cfu/ml and 3.56 log cfu/ml and 3.86 log cfu/ml and 3.32 log cfu/ml and 2.51 log cfu/ml and 3.03 log cfu/ml
same,Microbial count of unit effluent water,[4]; 3 days after 30-min treatment with 1000 ppm ClO2,3.94 log cfu/ml and 3.85 log cfu/ml and 5.25 log cfu/ml and 4.34 log cfu/ml and 2.62 log cfu/ml and 2.81 log cfu/ml
same,"Microbial count of unit effluent water, mean",[4]; 1 day after 30-min 1000 ppm ClO2,2.31 log cfu/ml
same,"Microbial count of unit effluent water, mean",[4]; 2 days after 30-min 1000 ppm ClO2,3.18 log cfu/ml
same,"Microbial count of unit effluent water, mean",[4]; 3 days after 30-min 1000 ppm ClO2,3.80 log cfu/ml
same,drop in bacterial colonies per ml of effluent water,"[4]; one day after treatment vs T=0, 1000 ppm, 30 min",2.3 log
same,bacterial colonies per ml of effluent water,"[4]; one day after treatment, numerical value of mean, 1000 ppm, 30 min",204 colonies per ml
same,reduction in organisms in the effluent water,[5]; after the first 500 ppm treatment,83 fold
same,reduction of unit's count,[5]; after the first 500 ppm treatment (day 0 to day 1),1.92 logs
same,Unit Microbial Count,"[5]; day 1, one day after first 30-min 500 ppm treatment (day 0)",2.66 log cfu/ml
same,Unit Microbial Count,"[5]; day 4, four days after first 500 ppm treatment",4.66 log cfu/ml
same,Unit Microbial Count,"[5]; day 8, one day after second 500 ppm treatment",3.04 log cfu/ml
same,Unit Microbial Count,"[5]; day 11, four days after second 500 ppm treatment, before third",4.18 log cfu/ml
same,Unit Microbial Count,"[5]; day 12, one day after third 500 ppm treatment",1.60 log cfu/ml
same,Unit Microbial Count,"[5]; day 15, four days after third 500 ppm treatment",3.15 log cfu/ml
same,unit count below that of the incoming water,[6]; Day 4,0.9 logs
same,unit count below that of the incoming water,[6]; Day 5,0.8 logs
same,count in the issuing water higher than the supply water,"[6]; Day 8, five days after the last treatment",1.0 log
same,Unit Count,"[6]; day 2, 1 day after first 30-min 500 ppm treatment",2.7 log cfu/ml
same,Unit Count,"[6]; day 3, 1 day after second consecutive 500 ppm treatment",1.8 log cfu/ml
same,Unit Count,"[6]; day 4, 1 day after third consecutive 500 ppm treatment",2.8 log cfu/ml
same,Unit Count,"[6]; day 5, 2 days after last 500 ppm treatment",2.3 log cfu/ml
same,Unit Count,"[6]; day 8, 5 days after last 500 ppm treatment",3.9 log cfu/ml
same,unit count below that of the incoming water,[6]; one day after the first 500 ppm treatment (day 2),1.2 logs
same,Unit Count,[7]; 4th day post-application,0 cfu/ml
same,"Microbial Counts, Unit Water","[7]; day 8, 1 day after single 1000 ppm 30-min exposure, sterile water supply, unit active",2.26 log cfu/ml
same,"Microbial Counts, Unit Water","[7]; day 9, 2 days after exposure, sterile water supply, active",1.3 log cfu/ml
same,"Microbial Counts, Unit Water","[7]; day 10, 3 days after exposure, sterile water supply, active",1.3 log cfu/ml
same,"Microbial Counts, Unit Water","[7]; day 11, 4 days after exposure, sterile water supply, active",0 log cfu/ml
same,"Microbial Counts, Unit Water","[7]; day 14, 7 days after exposure, after passive weekend (days 12-13)",3.88 log cfu/ml
same,Unit Count,"[7]; days 2-3 post-application, numerical value of 1.3 logs",20 organisms per ml
same,Unit Count,"[7]; one day after treatment, numerical value",182 cfu/ml
same,further drop,[7]; subsequent 2 days after day 8,10 fold
same,population drop,[7]; within a day of the ClO2 treatment,"about 40,500 microbial organism per ml of water"
same,drop of unit count,"[7]; within a day of the ClO2 treatment, from pre-treatment average of 4.61 logs",2.35 log cfu/ml
same,Unit Microbial Count,"[8]; day 7, seven days after first 500 ppm treatment, before second",5.83 log cfu/ml
same,Unit Microbial Count,"[8]; day 18, 7 days after third 500 ppm treatment",4.08 log cfu/ml
